Results from US5129937A, “Pyridyloxypyrimidine derivatives, preparation process thereof, and herbicidal compositions containing the same as active ingredients” (Mitsui Toatsu Chemicals Incorporated, priority 1989, dated 1992).

Tests used:
[1] = test system: Barnyardgrass (Echinochloa crus-galli); experiment: Submerged Soil Treatment Test (Pre-Emergence Treatment); assay type: in vivo; conditions: 30 g ai/a, granule, observed 30 days later
Experimental: (§1) 1/5000-are Wagner pots were filled with soil. Seeds or tubers of barnyardgrass, bulrush and Sagittaria pygmaea were seeded or planted under submerged condition. Two pairs of rice seedlings (2-3 leaf stage), which had been reared in advance, were transplanted to each pot and were allowed to germinate in a green house. Each pair consisted of two rice seedlings. On day later (before emergence of weeds), each pot was treated with a granule which had been prepared by processing a predetermined amount of the test composition in accordance with a similar method to the method described in Formulation Example 9. The state of emergence of weeds and the state of injury of rice were observed 30 days later. In the table, the degrees of damages of the test plants and the degrees of injury of rice are shown in a similar manner to Example 2.

[2] = test system: Bulrush (Scirpus juncoides); experiment: as above; assay type: in vivo; conditions: 30 g ai/a, granule, observed 30 days later
Experimental: as §1

[3] = test system: Arrowhead sp. (Sagittaria pygmaea); experiment: as above; assay type: in vivo; conditions: 30 g ai/a, granule, observed 30 days later
Experimental: as §1

[4] = test system: Soybean (Glycine max); experiment: Upland Foliar Application Test, crop injury; assay type: in vivo; conditions: 30 g ai/a; foliar application at 2-3 leaf stage, emulsion; observed on the 30th day
Source text: (§2) Resin-made 1/10000-are pots were filled with the soil of an upland field. Redroot pigweed, morningglory (Ipomoea pupurea), common lambsquarters, foxtail meadow, johnsongrass, barnyardgrass, green foxtail, large crabgrass, soybean, corn and cotton were separately seeded and were allowed to germinate in a green house. When each plant grew to the stage of 2-3 leaves, an emulsion formulated from a predetermined amount of each test compound in a similar manner to the method described in Formulation Example 11 was diluted with water and then sprayed at a predetermined application rate by means of a pressure-operated ULV (ultra low volume) sprayer. The application rate was controlled at 5 l per are. Influence to the crops and weeds were observed on the 30th day after the spray of the herbicides. The results are shown in Table 4 in which the degree of damages of each test plant and the degree of injury to each crop are shown in a similar manner to Test 2.

[5] = test system: Corn (Zea maize); experiment: Upland Foliar Application Test, crop injury; assay type: in vivo; conditions: 30 g ai/a; foliar application at 2-3 leaf stage, emulsion; observed on the 30th day
Source text: as §2

[6] = test system: Cotton (Gossypium indicum); experiment: Upland Foliar Application Test, crop injury; assay type: in vivo; conditions: 30 g ai/a; foliar application at 2-3 leaf stage, emulsion; observed on the 30th day
Source text: as §2

[7] = test system: ALS (acetolactate synthase); experiment: ALS (Acetolactate Synthase) Inhibition Test, barnyardgrass enzyme; assay type: biochemical; conditions: enzymoreaction inhibition rate at 10 ppm (5 μg/0.5 ml)
Experimental: To determine the selectivity in enzyme level between crops and weeds, an ALS inhibition test was conducted using pea as a representative of broadleaf crops and barnyardgrass as a representative of gramineous weeds.
After seeds of pea and barnyardgrass were allowed to germinate at 25° C. for 8-14 days in a dark place, partially-purified suspensions (Suspensions A) of acetolactate syntase were separately obtained from seedlings in accordance with the method described in the literature, Plant Physiology, 75, 827-831. In a test tube, […], followed by the addition of 0.15 ml of a 20 mM K2 HPO4 solution and 0.25 ml of a reaction substrate medium which consisted of 40 mM of K2 HPO4, 40 mM of sodium pyruvate, 1 mM of TPP, 1 mM of MgCl2 and 20 μM of FAD so that 0.4 ml of a reaction solution (Solution B) was prepared. Added to 0.4 ml of Solution B was 0.1 ml of Suspension A. After the resultant mixture was shaken for 1 hour in a thermostat water bath controlled at 30° C., 50 μl of 6N sulfuric acid were added to terminate the reaction.
Next, the reaction-terminated liquid mixture was transferred into a thermostat water bath controlled at 60° C. and was heated for 15 minutes. Thereafter, 0.5 ml of a 0.5% creatine solution and 0.5 ml of a 5% alkaline α-naphthol solution were added, and the resultant mixture was maintained at 60° C. for 15 minutes. As a result, the test solution developed a pink-red color. After the above operation, the absorbance of the test solution at 525 nm was measured by a spectrophotometer (Absorbance 1 of Test Compound).
On the other hand, the absorbance (Absorbance 2 of Blank) of a solution obtained by subjecting a portion of Solution B, said portion being free of the test compound, to the above operation and the absorbance (Absorbance 3 of sulfuric acid terminated) of another solution obtained by subjecting another portion of Solution B, said portion containing 50 μl of 6N sulfuric acid as a test compound, were measured at the same time. […] [formula]

[8] = test system: Rice (Oryza sativa); experiment: Submerged Soil Treatment Test (Growth Stage Treatment), crop injury; assay type: in vivo; conditions: 30 g ai/a, growth stage treatment (barnyardgrass two-leaf stage), granule, transplanted rice, observed 30 days later
Experimental: as §1, with “allowed to grow in a” for “allowed to germinate in a”, “rice seedlings. When the barnyardgrass grew to the two-leaf stage, each pot” for “rice seedlings. On day later (before emergence of weeds), each pot”, “injury of the rice are” for “injury of rice are”

[9] = test system: Rice (Oryza sativa); experiment: Submerged Soil Treatment Test (Pre-Emergence Treatment), crop injury; assay type: in vivo; conditions: 30 g ai/a, granule, transplanted rice, observed 30 days later
Experimental: as §1

[10] = test system: Crabgrass (Digitaria adsendens); experiment: Upland Soil Application Test; assay type: in vivo; conditions: 30 g ai/a; soil application before emergence, wettable powder; observed 30 days later
Experimental: Resin-made 1/2500-are pots were filled with the soil of an upland field. After they were fertilized, soybean, corn and cotton were seeded and 2-3 cm soil covering was applied. Seeds of redroot pigweed, morningglory (Ipomoea purpurea), common lambsquarters, barnyardgrass, green foxtail, large crabgrass, foxtail meadow and johnsongrass had been uniformly mixed with the soil. They were allowed to germinate in a green house. One day later (before emergence of weeds), a wettable powder prepared from a predetermined amount of each test compound in a similar manner to the method described in Formulation Example 1 was diluted with water and then sprayed evenly at an application rate equal to 10 l per are onto the surface of the soil by means of a pressure-operated ULV (ultra low volume) sprayer. Influence to the crops and weeds were observed 30 days later. The results are shown in Table 3, in which the degree of damages of each test plant and the degree of injury to each crop were determined by comparing the air-dried weights of the test plant and crop with those of the corresponding plant and crop in untreated pots and are shown in accordance with the following standard: […]

[11] = test system: Barnyardgrass (Echinochloa crus-galli); experiment: Submerged Soil Treatment Test (Growth Stage Treatment); assay type: in vivo; conditions: 30 g ai/a, growth stage treatment (barnyardgrass two-leaf stage), granule, observed 30 days later
Experimental: as §1, with “allowed to grow in a” for “allowed to germinate in a”, “rice seedlings. When the barnyardgrass grew to the two-leaf stage, each pot” for “rice seedlings. On day later (before emergence of weeds), each pot”, “injury of the rice are” for “injury of rice are”

[12] = test system: Bulrush (Scirpus juncoides); experiment: as above; assay type: in vivo; conditions: 30 g ai/a, growth stage treatment (barnyardgrass two-leaf stage), granule, observed 30 days later
Experimental: as §1, with “allowed to grow in a” for “allowed to germinate in a”, “rice seedlings. When the barnyardgrass grew to the two-leaf stage, each pot” for “rice seedlings. On day later (before emergence of weeds), each pot”, “injury of the rice are” for “injury of rice are”

[13] = test system: Arrowhead sp. (Sagittaria pygmaea); experiment: as above; assay type: in vivo; conditions: 30 g ai/a, growth stage treatment (barnyardgrass two-leaf stage), granule, observed 30 days later
Experimental: as §1, with “allowed to grow in a” for “allowed to germinate in a”, “rice seedlings. When the barnyardgrass grew to the two-leaf stage, each pot” for “rice seedlings. On day later (before emergence of weeds), each pot”, “injury of the rice are” for “injury of rice are”

Row | SMILES | Herbicidal effects Barnyardgrass (Echinochloa crus-galli) [1] | Herbicidal effects Bulrush (Scirpus juncoides) [2] | Herbicidal effects Arrowhead sp. (Sagittaria pygmaea) [3] | Crop injury Soybean (Glycine max) [4] | Crop injury Corn (Zea maize) [5] | Crop injury Cotton (Gossypium indicum) [6] | Inhibition rate (%) Barnyardgrass [7] [%] | Crop injury Rice (Oryza sativa) [8] | Crop injury Rice (Oryza sativa) [9] | Herbicidal effects Crabgrass (Digitaria adsendens) [10] | Herbicidal effects Barnyardgrass (Echinochloa crus-galli) [11] | Herbicidal effects Bulrush (Scirpus juncoides) [12] | Herbicidal effects Arrowhead sp. (Sagittaria pygmaea) [13]
1 | COc1cc(OC)nc(Oc2cccnc2C2OCC(C)O2)n1 (centres unmarked) [Compound No. 7] | 5 (0-5 (Death)) | 5 (0-5 (Death)) | 4 (6-10 (Severe damages)) | 0 (91-100 (No damages)) | 0 (91-100 (No damages)) | 0 (91-100 (No damages)) | 87 | 0 (91-100 (No damages)) | 0 (91-100 (No damages)) | 4 (6-10 (Severe damages)) | 5 (0-5 (Death)) | 4 (6-10 (Severe damages)) | 4 (6-10 (Severe damages))
2 | COc1cc(OC)nc(Oc2cccnc2C(OC)OC)n1 [Compound No. 2, 3-(4.6-dimethoxy-2-pyrimidinyloxy)-2-pyridinecarboxaldehyde dimethylacetal] | 5 (0-5 (Death)) | 5 (0-5 (Death)) | 5 (0-5 (Death)) | 0 (91-100 (No damages)) | 0 (91-100 (No damages)) | 0 (91-100 (No damages)) | 81 | 0 (91-100 (No damages)) | 0 (91-100 (No damages)) | 5 (0-5 (Death)) | 4 (6-10 (Severe damages)) | 4 (6-10 (Severe damages)) | 4 (6-10 (Severe damages))
3 | CCOC(=O)c1ncccc1Oc1nc(OC)cc(OC)n1 [A, reference compound] | 5 (0-5 (Death)) | 5 (0-5 (Death)) | 4 (6-10 (Severe damages)) | 5 (0-5 (Death)) | 5 (0-5 (Death)) | 5 (0-5 (Death)) | 5 | 5 (0-5 (Death)) | 5 (0-5 (Death)) | 4 (6-10 (Severe damages)) | 5 (0-5 (Death)) | 4 (6-10 (Severe damages)) | 4 (6-10 (Severe damages))
4 | COc1cc(OC)nc(Oc2cccnc2C2OCCO2)n1 [Compound No. 6] | 5 (0-5 (Death)) | 5 (0-5 (Death)) | 5 (0-5 (Death)) | 0 (91-100 (No damages)) | 0 (91-100 (No damages)) | 0 (91-100 (No damages)) | 96 | 0 (91-100 (No damages)) | 0 (91-100 (No damages)) | 3 (11-40 (Medium damages)) | 5 (0-5 (Death)) | 5 (0-5 (Death)) | 3 (11-40 (Medium damages))
5 | COc1cc(OC)nc(Oc2ccccc2C=O)n1 [B, reference compound] | 3 (11-40 (Medium damages)) | 3 (11-40 (Medium damages)) | 5 (0-5 (Death)) | 5 (0-5 (Death)) | 5 (0-5 (Death)) | 5 (0-5 (Death)) | 98 | 5 (0-5 (Death)) | 5 (0-5 (Death)) | 4 (6-10 (Severe damages)) | 5 (0-5 (Death)) | 5 (0-5 (Death)) | 4 (6-10 (Severe damages))
